The target of experiment [1] is T1, human adenosine A2a receptor (Homo sapiens, UniProt P29274).
T1 construct: expressed in transfected cells; host or cells: CHO-K1
Briefly: Adenosine A2a Receptor Functional Assay (A2AGAL2). The format is cell-based. To be noted: CHO-K1 cells, cAMP inducible beta-galactosidase reporter, 15 nM NECA agonist challenge. As to the method:
(§1) To initiate the functional assay, cryopreserved CHO-K1 cells overexpressing the human adenosine A2a receptor and containing a cAMP inducible beta-galactosidase reporter gene were thawed, centrifuged, DMSO containing media removed, and then seeded with fresh culture media into clear 384-well tissue culture treated plates (BD #353961) at a concentration of 10K cells/well. Prior to assay, these plates were cultured for two days at 37° C., 5% CO2, 90% Rh. On the day of the functional assay, culture media was removed and replaced with 45 uL assay medium (Hams/F-12 Modified (Mediatech #10-080CV) supplemented w/0.1% BSA). Test compounds were diluted and 11 point curves created at a 1000× concentration in 100% DMSO. Immediately after addition of assay media to the cell plates, 50 nL of the appropriate test compound antagonist or agonist control curves were added to cell plates using a Cartesian Hummingbird. Compound curves were allowed to incubate at room temperature on cell plates for approximately 15 minutes before addition of a 15 nM NECA (Sigma E2387) agonist challenge (5 uL volume). A control curve of NECA, a DMSO/Media control, and a single dose of Forskolin (Sigma F3917) were also included on each plate. After additions, cell plates were allowed to incubate at 37° C., 5% CO2, 90% Rh for 5.5-6 hours. After incubation, media was removed, and cell plates were washed 1×50 uL with DPBS w/o Ca & Mg (Mediatech 21-031-CV). Into dry wells, 20 uL of 1× Reporter Lysis Buffer (Promega E3971 (diluted in dH2O from 5× stock)) was added to each well and plates frozen at −20° C. overnight. For β-galactosidase enzyme calorimetric assay, plates were thawed out at room temperature and 20 μL 2× assay buffer (Promega) was added to each well. Color was allowed to develop at 37° C., 5% CO2, 90% Rh for 1-1.5 h or until reasonable signal appeared. The calorimetric reaction was stopped with the addition of 60 μL/well 1M sodium carbonate. Plates were counted at 405 nm on a SpectraMax Microplate Reader (Molecular Devices). Data was analyzed in Microsoft Excel and IC/EC50 curves were fit using a standardized macro.

Experiment [2] deals with T2, human adenosine A1 receptor (Homo sapiens, UniProt P30542).
T2 construct: expressed in transfected cells; host or cells: CHO-K1
T2 sequence (P30542 1-326): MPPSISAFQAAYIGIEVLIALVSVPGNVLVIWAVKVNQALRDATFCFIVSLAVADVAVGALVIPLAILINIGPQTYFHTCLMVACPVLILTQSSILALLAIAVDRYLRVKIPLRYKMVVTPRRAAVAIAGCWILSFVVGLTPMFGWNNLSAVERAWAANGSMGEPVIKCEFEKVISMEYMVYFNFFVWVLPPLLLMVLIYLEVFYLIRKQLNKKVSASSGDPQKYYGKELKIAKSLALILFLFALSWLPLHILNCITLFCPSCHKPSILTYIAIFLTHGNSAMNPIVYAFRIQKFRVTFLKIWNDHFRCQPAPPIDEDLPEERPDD
Briefly: Adenosine A1 Receptor Functional Assay (A1GAL2). The format is cell-based. The note with it: CHO-K1 cells, cAMP inducible beta-galactosidase reporter, 4nM r-PIA/1 uM Forskolin agonist challenge. As to the method:
as §1, with “A1” for “A2a”, “4nM r-PIA” for “15 nM NECA”, “P4532)/1 uM Forskolin (Sigma F3917)” for “E2387)”, “r-PIA in 1 uM Forskolin,” for “NECA,”, “Forskolin” for “Forskolin (Sigma F3917)”

For experiment [3], the target named is T3, human A2a adenosine receptor (Homo sapiens, UniProt P29274).
T3 construct: purchased PerkinElmer RB-HA2a; host or cells: HEK293 plasma membrane
T3 sequence (P29274 whole entry): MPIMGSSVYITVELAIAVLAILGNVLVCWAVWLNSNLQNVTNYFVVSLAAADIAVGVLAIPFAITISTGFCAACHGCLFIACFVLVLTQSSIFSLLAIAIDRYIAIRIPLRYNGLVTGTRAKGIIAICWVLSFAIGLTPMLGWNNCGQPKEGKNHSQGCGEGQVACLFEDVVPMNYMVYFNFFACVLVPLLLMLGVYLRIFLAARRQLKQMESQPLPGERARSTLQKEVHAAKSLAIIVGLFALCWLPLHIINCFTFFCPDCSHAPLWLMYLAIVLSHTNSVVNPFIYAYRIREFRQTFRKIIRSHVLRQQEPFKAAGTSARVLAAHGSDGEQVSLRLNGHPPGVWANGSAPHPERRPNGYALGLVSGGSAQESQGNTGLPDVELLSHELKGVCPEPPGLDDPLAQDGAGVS
Briefly: Ligand Binding Assay for Adenosine A2a Receptor (A2A-B). To be noted: HEK293 cell plasma membrane, radioligand [3H]CGS21680. As to the method: Ligand binding assay of adenosine A2a receptor was performed using plasma membrane of HEK293 cells containing human A2a adenosine receptor (PerkinElmer, RB-HA2a) and radioligand [^3H]CGS21680 (PerkinElmer, NET1021). Assay was set up in 96-well polypropylene plate in total volume of 200 μL by sequentially adding 20 μL 1:20 diluted membrane, 130 μL assay buffer (50 mM Tris·HCl, pH7.4 10 mM MgCl2, 1 mM EDTA) containing [^3H] CGS21680, 50 μL diluted compound (4×) or vehicle control in assay buffer. Nonspecific binding was determined by […] NECA. Reaction was carried out at room temperature for 2 hours before filtering through 96-well GF/C filter plate pre-soaked in 50 mM Tris·HCl, pH7.4 containing 0.3% polyethylenimine. Plates were then washed 5 times with cold 50 mM Tris·HCl, pH7.4, dried and sealed at the bottom. Microscintillation fluid 30 μL was added to each well and the top sealed. Plates were counted on Packard Topcount for [^3H]. Data was analyzed in Microsoft Excel and GraphPad Prism programs. (Varani, K.; Gessi, S.; Dalpiaz, A.; Borea, P. A. British Journal of Pharmacology, 1996, 117, 1693)

As usually defined, the Ki is the equilibrium dissociation constant of an inhibitor or competing ligand from its target. Read a low Ki as higher affinity.

Counter-ions that a name gives are not always drawn.

T1 sequence (P29274 whole entry): as above

As to `Cc1cc(-c2nc(N)c3cc(C(=O)NCc4cccnc4)sc3n2)no1` [Example 21, 4-Amino-2-(5-methyl-isoxazol-3-yl)-thieno[2,3-d]pyrimidine-6-carboxylic acid(pyridin-3-ylmethyl)-amide], the values for the Ki in experiment [1] and in experiment [2] were 310 nM and 26.9 nM, respectively.

As to `Cc1csc(-c2nc(N)c3cc(C(=O)NCc4cccnc4)sc3n2)n1` [Example 27, 4-Amino-2-(4-methyl-thiazol-2-yl)-thieno[2,3-d]pyrimidine-6-carboxylic acid(pyridin-3-ylmethyl)-amide], the Ki in experiment [1] is 40.3 nM; in experiment [2], 245 nM.

Consider `Cc1csc(-c2nc(N)c3cc(C(=O)NCCc4cccnc4)sc3n2)n1` [Example 11, 4-Amino-2-(4-methyl-thiazol-2-yl)-thieno[2,3-d]pyrimidine-6-carboxylic acid(2-pyridin-3-yl-ethyl)-amide], for which the figures for the inhibition constant (Ki) in experiment [1] and in experiment [2] were 17.9 nM and 530 nM, respectively.

For the molecule `N#Cc1cccc(-c2nc(N)c3cc(C(=O)NCc4cccnc4)sc3n2)c1` [Example 19, 4-Amino-2-(3-cyano-phenyl)-thieno[2,3-d]pyrimidine-6-carboxylic acid(pyridin-3-ylmethyl)-amide], the inhibitory constant (Ki) in experiment [1] turned out to be 14.2 nM; in experiment [2], 21.9 nM.

For the molecule `N#Cc1cccc(-c2nc(N)c3cc(C(=O)NCc4ccccn4)sc3n2)c1` [Example 15, 4-Amino-2-(3-cyano-phenyl)-thieno[2,3-d]pyrimidine-6-carboxylic acid(pyridin-2-ylmethyl)-amide], the Ki in experiment [1] was determined as 29 nM; in experiment [2], 113 nM.

In the case of `Cc1csc(-c2nc(N)c3cc(C(=O)N4CCN(C(C)(C)C)CC4)sc3n2)n1` [Example 23, [4-Amino-2-(4-methyl-thiazol-2-yl)-thieno[2,3-d]pyrimidin-6-yl]-(4-tert-butyl-piperazin-1-yl)-methanone], the Ki in experiment [1] was 367 nM; in experiment [2] it was above 1310 nM.

Turning to `Cc1csc(-c2nc(N)c3cc(C(=O)NCc4ccc(Cl)nc4)sc3n2)n1` [Example 20, 4-Amino-2-(4-methyl-thiazol-2-yl)-thieno[2,3-d]pyrimidine-6-carboxylic acid(6-chloro-pyridin-3-yl-methyl)-amide hydrochloride], the results for the Ki in experiment [1] and in experiment [2] were 109 nM and 508 nM, respectively.

On to `Nc1nc(-c2ncco2)nc2sc(C(=O)NCCN3CCOCC3)cc12` [Example 25, 4-Amino-2-oxazol-2-yl-thieno[2,3-d]pyrimidine-6-carboxylic acid(2-morpholin-4-yl-ethyl)-amide], for which the values for the Ki in experiment [1] and in experiment [2] were 287 nM and above 1310 nM, respectively.

For the molecule `Cc1ccc(-c2nc(N)c3cc(C(=O)N4CCOCC4)sc3n2)o1` [Example 5, [4-Amino-2-(5-methyl-furan-2-yl)-thieno[2,3-d]pyrimidin-6-yl]-morpholin-4-yl-methanone], the Ki in experiment [1] was found to be 11 nM; in experiment [3] it was 12 nM; in experiment [2], 167 nM.

For the molecule `Cc1csc(-c2nc(N)c3cc(C(=O)N4CCOCC4)sc3n2)n1` [Example 3, [4-Amino-2-(4-methyl-thiazol-2-yl)-thieno[2,3-d]pyrimidin-6-yl]-morpholin-4-yl-methanone], the Ki in experiment [1] came out at 24.9 nM; in experiment [3], 45.5 nM; in experiment [2], 851 nM.

As for `CC(C)(C)N1CCN(C(=O)c2cc3c(N)nc(-c4ccc(C5CC5)o4)nc3s2)CC1` [Example 32, [4-Amino-2-(5-cyclopropyl-furan-2-yl)-thieno[2,3-d]pyrimidin-6-yl]-(4-tert-butyl-piperazin-1-yl)-methanone], the figures for the inhibition constant (Ki) in experiment [1] and in experiment [2] were 1240 nM and above 1040 nM, respectively.

As for `Nc1nc(-c2nccs2)nc2sc(C(=O)N3CCOCC3)cc12` [Example 4, (4-Amino-2-thiazol-2-yl-thieno[2,3-d]pyrimidin-6-yl)-morpholin-4-yl-methanone], the Ki was determined as 80.9 nM in experiment [1] and 1430 nM in experiment [2].

As to `Cc1csc(-c2nc(N)c3cc(C(=O)NC4CCOCC4)sc3n2)n1` [Example 12, 4-Amino-2-(4-methyl-thiazol-2-yl)-thieno[2,3-d]pyrimidine-6-carboxylic acid(tetrahydro-pyran-4-yl)-amide], the Ki came out at 21.9 nM in experiment [1] and 443 nM in experiment [2].

For the molecule `Cc1csc(-c2nc(N)c3cc(C(=O)N4CCN(Cc5ccccn5)CC4)sc3n2)n1` [Example 28, [4-Amino-2-(4-methyl-thiazol-2-yl)-thieno[2,3-d]pyrimidin-6-yl]-(4-pyridin-2-ylmethyl-piperazin-1-yl)-methanone], the figures for the Ki in experiment [1] and in experiment [2] were 160 nM and above 1040 nM, respectively.

With `Nc1nc(-c2ncco2)nc2sc(C(=O)NC3CCOCC3)cc12` [Example 13, 4-Amino-2-oxazol-2-yl-thieno[2,3-d]pyrimidine-6-carboxylic acid(tetrahydro-pyran-4-yl)-amide], the values for the Ki in experiment [1] and in experiment [2] were 99.2 nM and above 1000 nM, respectively.

Regarding `Nc1nc(-c2ccc(C3CC3)o2)nc2sc(C(=O)N3CCOCC3)cc12` [Example 29, [4-Amino-2-(5-cyclopropyl-furan-2-yl)-thieno[2,3-d]pyrimidin-6-yl]-morpholin-4-yl-methanone], the Ki in experiment [1] is 236 nM; in experiment [2], above 1070 nM.

As for `Cc1csc(-c2nc(N)c3cc(C(=O)N4CCN(c5ccncc5)CC4)sc3n2)n1` [Example 8, [4-Amino-2-(4-methyl-thiazol-2-yl)-thieno[2,3-d]pyrimidin-6-yl]-(4-pyridin-4-yl-piperazin-1-yl)-methanone], the Ki in experiment [1] is 222 nM; in experiment [2], above 1070 nM.

These data come from US20100093714A1, “AMIDES OF THIENO[2,3-d]PYRIMIDINE AND THEIR USE AS ADENOSINE A2a RECEPTOR ANTAGONISTS” (priority 2008, published 2010).
